From patent US20140039018A1 (priority 2011, published 2014)
In brackets after ≈: the same amount, converted by molar mass. Where two headings read alike, the source gives them in different places.

Key:
[1] = system: Fusarium graminearum Fg15 strain; format: cell-based; details: 25° C., 1 week
[2] = system: Fusarium graminearum Fg15 strain; test: microbe, parasite or virus in culture; format: cell-based; details: FG15STRAIN, read-out: MIC value (minimum inhibition concentration)
[3] = system: Fusarium graminearum H-3 strain; format: in vivo, wheat
[4] = system: Fusarium graminearum H-3 strain; format: in vivo, barley; details: 18% wettable powder, 2000-fold dilution, 1500 L/ha, once in browning stage

## CC1(C)CCC(Cc2ccc(Cl)cc2)C1(O)Cn1cncn1 (stereo not shown) [metconazole]
[1]; PDA medium containing metconazole at 0.1 ppm
  toxin (DON) amount per cell weight versus medium containing no metconazole: significantly smaller
[1]; PDA medium containing metconazole at 0.2 ppm
  toxin (DON) amount per cell weight versus medium containing no metconazole: significantly smaller
[2]
  MIC: 1.56 µg/mL (≈ 4.88 µM)
[3]; 18% wettable powder, 2000-fold dilution, 1500 L/ha, once in yellowing stage or each once in flowering and yellowing stage, 2 weeks after cropping, FIG. 2
  mycotoxin (DON) in wheat grains versus grain cropped without application: significantly smaller amount of the toxin
[3]; application in the pre-cropping yellowing stage
  accumulation of the toxin in wheat grains after cropping: inhibited
[4]
  DON accumulation level in barley grain at the time of cropping: 704 ppb
[4]; room temperature storage for a half year after cropping
  DON accumulation level in barley grain after storage for a half year: 407 ppb
